Here are results for 16 compounds from US20240247015A1, “PHOSPHORUS DERIVATIVES AS NOVEL SOS1 INHIBITORS” (BAYER AKTIENGESELLSCHAFT, priority 2021, published 2024).

Broadly, the IC50 is the concentration that gives 50% inhibition.

The assay has as its target interaction of human SOS1 (SOS1) with human K-RasG12C (Homo sapiens (Human), UniProt Q07889). Description: Biochemical assay: hK-RasG12C interaction assay with hSOS1 (HTRF). The format is binding. The conditions noted are these: GST-hK-RasG12C with His-hSOS1, 60 min incubation at 20° C., mean, read-out: K-RasG12C - SOS interaction assay IC50 (mean). In a few lines: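 Compounds, duplicates at 11 concentrations from 0.073 nM to 20 µM, were preincubated 2 min with 10 nM GST-hK-RasG12C, then 20 nM His-hSOS1 was added, all at 20 °C. After 60 min, 665/620 nm HTRF ratio normalized to DMSO and SOS1-free controls; IC50 by 4-parameter fit.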
(TR-FRET usually uses a lanthanide donor and a delayed reading to cut background.)

Sequence of interaction of human SOS1 (SOS1) with human K-RasG12C (Q07889 564-1049 limits assumed): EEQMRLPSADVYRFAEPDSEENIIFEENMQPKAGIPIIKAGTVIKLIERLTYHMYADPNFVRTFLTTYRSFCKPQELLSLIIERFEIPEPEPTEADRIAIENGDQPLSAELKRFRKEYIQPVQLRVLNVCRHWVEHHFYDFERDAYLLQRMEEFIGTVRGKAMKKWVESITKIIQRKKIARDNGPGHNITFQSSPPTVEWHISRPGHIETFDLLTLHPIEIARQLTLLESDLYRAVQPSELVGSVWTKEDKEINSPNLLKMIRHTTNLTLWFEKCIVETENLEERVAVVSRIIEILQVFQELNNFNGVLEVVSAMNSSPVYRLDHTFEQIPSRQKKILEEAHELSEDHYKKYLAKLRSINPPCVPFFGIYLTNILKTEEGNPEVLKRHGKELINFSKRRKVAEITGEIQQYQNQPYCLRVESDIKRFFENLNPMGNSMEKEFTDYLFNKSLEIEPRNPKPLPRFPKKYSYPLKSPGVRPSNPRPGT

`CC(=O)N1CCP(=O)(c2cc3c(N[C@H](C)c4cccc(C(F)(F)F)c4Cl)nc(C)nc3cn2)CC1` [Example 191]: the IC50 is 8.09 nM.
To `CC(=O)N1CCP(=O)(c2cc3c(N[C@H](C)c4cccc(C(F)(F)F)c4)nc(C)nc3cn2)CC1` [Example 192] belongs 11.7 nM; to `CC(=O)N1CCP(=O)(c2cc3c(N[C@H](C)c4cccc(C(F)(F)C(C)(C)O)c4F)nc(C)nc3cn2)CC1` [Example 193], 4.1 nM; to `CC(=O)N1CCP(=O)(c2cc3c(N[C@H](C)c4cccc(C(F)(F)F)c4C)nc(C(F)(F)F)nc3cn2)CC1` [Example 194], 12.1 nM.
Under `CC(=O)N1CCP(=O)(c2cc3c(N[C@H](C)c4cccc(C(F)(F)F)c4C)nc(C(F)F)nc3cn2)CC1` [Example 195] stands 6.56 nM.
In the case of `CC(=O)N1CCP(=O)(c2cc3c(N[C@H](C)c4cccc(C(F)(F)F)c4C)nc(Cl)nc3cn2)CC1` [Example 196], the concentration for half-maximal inhibition (IC50) amounted to 2.38 nM.
As for `CC(=O)N1CCP(=O)(c2ccc3nc(C)nc(N[C@H](C)c4cccc(C(F)(F)F)c4C)c3c2)CC1` [Example 197], the IC50 was 7.4 nM.
For `CC(=O)NCC(F)(F)c1cccc([C@@H](C)Nc2nc(C)nc3cnc(P4(=O)CCN(C(C)=O)CC4)cc23)c1F` [Example 199], the IC50 is 4.61 nM.
To `CC(=O)N1CCP(=O)(c2cc3c(N[C@H](C)c4cccc(C(F)(F)CN(C)S(C)(=O)=O)c4F)nc(C)nc3cn2)CC1` [Example 200] belongs 3.95 nM; to `CC(=O)N(C)CC(F)(F)c1cccc([C@@H](C)Nc2nc(C)nc3cnc(P4(=O)CCN(C(C)=O)CC4)cc23)c1F` [Example 201], 5.81 nM.
Under `CC(=O)N1CCP(=O)(c2cc3c(N[C@H](C)c4cccc(C(F)(F)CN(C(C)=O)C5CC5)c4F)nc(C)nc3cn2)CC1` [Example 202] stands 3.89 nM; under `Cc1nc(N[C@H](C)c2cccc(C(F)(F)F)c2C)c2cc(P3(=O)CCN(C(=O)C(F)F)CC3)ncc2n1` [Example 203], 5.65 nM; under `Cc1nc(N[C@H](C)c2cccc(C(F)(F)F)c2Cl)c2cc(P3(=O)CCN(C(=O)C(F)F)CC3)ncc2n1` [Example 204], 5.96 nM.
Under `Cc1nc(N[C@H](C)c2cccc(C(F)(F)F)c2)c2cc(P3(=O)CCN(C(=O)C(F)F)CC3)ncc2n1` [Example 205] stands 9.64 nM; under `Cc1nc(N[C@H](C)c2cccc(C(F)F)c2F)c2cc(P3(=O)CCN(C(=O)C(F)F)CC3)ncc2n1` [Example 206], 3.77 nM; under `Cc1nc(N[C@H](C)c2cccc(C(F)(F)F)c2C)c2cc(P3(=O)CCN(C(=O)C(F)F)CC3)ccc2n1` [Example 207], 6.84 nM.
